Assay results: patent publication US20100330604A1, “QUANTIFICATION OF CHANGES IN THE DEGREES OF ORDER OF CELLULAR AND VIRAL MEMBRANES AND APPLICATIONS TO DIAGNOSIS, TREATMENT AND DRUG SCREENING” (priority 2007, published 2010)
Read-outs that look alike come from different tables or passages of the source.

Key:
platelets [1] = assay: Spectral flow cytometry of di-4-[…] stained platelets stimulated by soluble agonists; format: cell-based
platelets [2] = settings: mean+/-SD
platelets [3] = settings: all three patient groups; FIG. 19 panel B
platelets [4] = assay: Di-4-[…] fluorescence and Rf (675/575 nm) by flow cytometry on isolated platelets treated in vitro; format: cell-based
platelets [5] = assay: Di-4-[…] Rf by confocal fluorescent microscopy on platelets; format: cell-based; settings: 10 mM, 37° C., 30 min; four donors; p=0.045
Protocol: Referring to FIG. 3, fluorescence intensities were measured by confocal fluorescent microscopy and flow cytometry on control platelets, cholesterol depleted platelets (10 mM Methyl-β-cyclodextrin, 37° C., 30 min) and cholesterol enriched platelets (2 mM Cholesterol-MCD complex, 37° C., 30 min).
A META confocal fluorescence microscope system (Zeiss, Toronto) was used to measure the intensities of fluorescence between 534 to 599 nm and between 650 to 684 nm allowing calculating the fluorescence ratio (Rf) prepared according as described hereinabove. Consistently with previous published data on neutrophils (Jin L et al. Biophys J; 2006), the Rf was higher after depletion compared to control platelets (measures on at least 5 platelets of four different donors; p=0.045) (Panel A).

P-selectin = assay: Expression of platelet activation marker P-selectin on washed platelets; format: cell-based; settings: 10 mM, 30 minutes, room temperature; after 10 μM TRAP or 50 μM A23187
[6] = test system: activated GpIIbIIIa receptors; assay: Activation of the activated GpIIbIIIa receptors on washed platelets; format: cell-based; settings: 10 mM, 30 minutes, room temperature; after 10 μM TRAP or 50 μM A23187
cells = assay: Kinetics of apoptosis after addition of staurosoprine (di-4-[…] staining, flow cytometry); format: cell-based
From the text: Cells are detected, identified and segregated according to their size using forward scatter (FSC) and granularity (SSC). A total of 5000-10000 particles are typically analyzed. The excitation light is provided by a 488 nm laser, but could be achieved with lasers having wavelengths between 400 and 500 nm, among other possibilities. The emission fluorescence associated with liquid ordered domains is acquired between 575+/−25 nm, but the bandwidth could be narrower or wider, for example contained between 500 and 600 nm. The emission fluorescence associated with liquid disordered domains is acquired between 675+/−25 nm, but the bandwidth could be narrower or wider, contained for example between 650 and 750 nm.
Amplifications and gains associated with both fluorescences are adjusted on calibrated fluorescent beads or on a control cell population to obtain a ratio of fluorescence and to allow increases or decreases of the fluorescences and of the ratio. The ratio of fluorescence (Rf) is determined for each particle analysed by computing the ratio between the fluorescence intensity at 675 nm and the fluorescence intensity at 575 nm. By plotting FSC or SSC as a function of Rf for all particles on a logarithmic scale graph, the percentage of apoptotic cells can be determined as being the percentage of cells in the studied population having a Rf higher than a control population.

platelets [7] = assay: Shear Induced Platelet activation (SIPA): high Rf platelet subpopulation; format: cell-based
platelets [8] = assay: Di-4-ANEPPDHQ Rf by flow cytometry on platelets of hyperlipidemic patients before and after atorvastatin; format: in vivo, human; settings: after 6-week atorvastatin 40 mg
[9] = 10 mM, room temperature, during incubation, N=3

Question: For thrombin, which “fluorescence at wavelengths larger than 660 nm compared to controls” value (platelets [1]; 0.5 U/mL, 30 minutes at 37 C) is on record?
Answer: The value was “increased significantly”.

Question: What about the “fluorescence between 530 and 585 nm compared to controls” value (platelets [1]; 0.5 U/mL, 30 minutes at 37 C) of the same compound?
Answer: Its value is “decreased significantly”.

Question: And the “fluorescence intensities between 515 and 600 nm (more ordered phases) upon activation” value (platelets [1]; Thrombin 0.5 U/ml, A23187 10 μM, Thrombin 0.5 U/ml/Convulxin 500 ng/ml, FIG. 15)?
Answer: Its value is “decrease”.

Question: `COC(=O)[C@H](c1ccccc1Cl)N1CCc2sccc2C1` [clopidogrel] was tested. Which “ratio of fluorescence (Rf) after administration of clopidogrel” value (“ratio of fluorescence (Rf) … of clopidogrel” below) (platelets [2]; Group A: clopidogrel 300 mg the day before + 75 mg the morning of the procedure, before 8.80+/-0.2, p<0.001) did it give?
Answer: The value was 8.68+/−0.22.

Question: And the “ratio of fluorescence (Rf) … of clopidogrel” value (platelets [2]; Group B: clopidogrel 600 mg the morning of (2 hours before) the procedure, before 8.90+/-0.24, p=0.006)?
Answer: Its value is 8.77+/−0.27.

Question: And the “ratio of fluorescence (Rf) … of clopidogrel” value (platelets [2]; Group C: clopidogrel 600 mg the day before and 600 mg the morning of the procedure, before 8.69+/-0.29, p=0.88)?
Answer: The value was 8.69+/−0.21.

Question: And the “platelet sub-population (Population 2), about 0.46% of platelets before treatment” value (platelets [3])?
Answer: The value was “inhibited”.

Question: How did the “Rf measured by flow cytometry” value (platelets [4]; platelets, 30 minutes at 37° C., different concentrations, N=5) turn out when `CCCCC[C@@H](O)[C@H]1C(=O)O[C@H](C)[C@@H](O)/C=C/C=C/C=C/C=C/C=C(\C)[C@@H](O)C[C@H](O)C[C@H](O)C[C@H](O)C[C@H](O)C[C@H](O)C[C@@H]1O` [filipin] was run?
Answer: Its value is “dose-dependency”.

Question: What does the source list for Methyl-β-cyclodextrin?
Answer: fluorescence intensity (575 and 675 nm) versus control undepleted platelets (platelets [4]; 10 mM, 37° C., 30 min, 10 μM di-4-ANEPPDHQ): shifted to lower values; Rf vs. control platelets (platelets [4]; 10 mM, 30 minutes, room temperature, p<0.05 to p<0.001): increased; time of cholesterol depletion after which the fluorescence ratio measurement is substantially stable (platelets [4]; 10 mM, room temperature): 30 min; fluorescence associated to the more ordered membrane (575 nm) (platelets [4]; [9]): decreased; fluorescence emitted at 675 nm (platelets [4]; [9]): remained stable; ratio of fluorescence (Rf) during the incubation (platelets [4]; 10 mM, room temperature, N=3): increased; fluorescence ratio (Rf) calculated from flow cytometry data (platelets [4]; cholesterol depletion 10 mM, 37° C., 30 min, N=5): increased; Rf by confocal microscopy compared to control platelets (platelets [5]): higher; expression of platelet activation marker P-selectin (P-selectin): decreased; activation of the activated GpIIbIIIa receptors [6]: decreased

Question: Which “total proportion of intact cells after induction of apoptosis” value (cells; FIG. 17 panel G) does the source give for `CN[C@@H]1C[C@H]2O[C@@](C)([C@@H]1OC)n1c3ccccc3c3c4c(c5c6ccccc6n2c5c31)C(=O)NC4` [staurosoprine] here?
Answer: The value was “decreases regularly”.

Question: And the “time at which the concentration in microparticles is maximal” value (cells; FIG. 17 panel H)?
Answer: The value was 24 h.

Question: For `C=C1[C@@H](C)[C@H]2[C@H](Cc3ccccc3)NC(=O)[C@]23[C@H](OC(C)=O)/C=C/[C@@](C)(O)C(=O)[C@@H](C)C/C=C/[C@H]3[C@@H]1O` [cytochalasin D], which “generation of the high Rf platelet population during the shear treatment” value (platelets [7]) is on record?
Answer: The value was “abrogated”.

Question: With `CNc1ccc2oc(C[C@H]3O[C@@]4(CC[C@H]3C)O[C@H]([C@H](C)C(=O)c3ccc[nH]3)[C@H](C)C[C@H]4C)nc2c1C(=O)O` [A23187] as the compound, how does the “Rf vs. non activated platelets incubated with TBS” value (platelets [4]; agonist: 10 μM TRAP or 50 μM A23187, p<0.05) read?
Answer: The value was “significantly increased”.

Question: And the “fluorescence intensities between 515 and 600 nm (more ordered phases) upon activation” value (platelets [1])?
Answer: Its value is “decrease”.

Question: How did the “Rf (MLO in platelets)” value (platelets [8]; 20 hyperlipidemic patients, compared value 9.2+/-0.1, p=0.01) turn out when `CC(C)c1c(C(=O)Nc2ccccc2)c(-c2ccccc2)c(-c2ccc(F)cc2)n1CC[C@@H](O)C[C@@H](O)CC(=O)O` [atorvastatin] was run?
Answer: The value was 8.8+/−0.1.

Question: And the “effects of the cholesterol depletion on the MLO (Rf)” value (platelets [8]; compared value 12.8+/-0.5, p=0.09)?
Answer: Its value is 11.7+/−0.2.
